Results as given in patent US5807981A (FibroGen Inc., priority 1995, dated 1998).
Where two headings read alike, the source gives them in different places. Starred links: 1 amine or outer side, 2 acyl side, 3 side chain; linkers in the order of their positions; H or OH if unused. Non-standard residues stand in square brackets, D forms with d. Residues, ends and D or L forms follow the SMILES beside them. *: point of attachment. Sta = CC(C)C[C@H](N)[C@@H](O)CC(=O)O; Isovaleryl = CC(C)CC(=O)*; CO = O=C([*:1])[*:2]

How the values were obtained:
C-proteinase [1] = conditions: cited from earlier work; for inhibitory at low concentrations / inhibition of C-proteinase activity (in words) / concentrations at which inhibitory: background, prior art
C-proteinase [2] = target: T1, C-proteinase (Homo sapiens, UniProt P13497); test: Cleavage of synthetic procollagen cleavage-site peptides by active C-proteinase; format: biochemical; conditions: for Cleavability: Table 1, cleavability of peptides resembling the C-proteinase cleavage site of procollagen; for cleavability by C-proteinase: truncated and extended peptides compared with original peptide SEQ ID NO:6
T1 sequence (P13497 121-986): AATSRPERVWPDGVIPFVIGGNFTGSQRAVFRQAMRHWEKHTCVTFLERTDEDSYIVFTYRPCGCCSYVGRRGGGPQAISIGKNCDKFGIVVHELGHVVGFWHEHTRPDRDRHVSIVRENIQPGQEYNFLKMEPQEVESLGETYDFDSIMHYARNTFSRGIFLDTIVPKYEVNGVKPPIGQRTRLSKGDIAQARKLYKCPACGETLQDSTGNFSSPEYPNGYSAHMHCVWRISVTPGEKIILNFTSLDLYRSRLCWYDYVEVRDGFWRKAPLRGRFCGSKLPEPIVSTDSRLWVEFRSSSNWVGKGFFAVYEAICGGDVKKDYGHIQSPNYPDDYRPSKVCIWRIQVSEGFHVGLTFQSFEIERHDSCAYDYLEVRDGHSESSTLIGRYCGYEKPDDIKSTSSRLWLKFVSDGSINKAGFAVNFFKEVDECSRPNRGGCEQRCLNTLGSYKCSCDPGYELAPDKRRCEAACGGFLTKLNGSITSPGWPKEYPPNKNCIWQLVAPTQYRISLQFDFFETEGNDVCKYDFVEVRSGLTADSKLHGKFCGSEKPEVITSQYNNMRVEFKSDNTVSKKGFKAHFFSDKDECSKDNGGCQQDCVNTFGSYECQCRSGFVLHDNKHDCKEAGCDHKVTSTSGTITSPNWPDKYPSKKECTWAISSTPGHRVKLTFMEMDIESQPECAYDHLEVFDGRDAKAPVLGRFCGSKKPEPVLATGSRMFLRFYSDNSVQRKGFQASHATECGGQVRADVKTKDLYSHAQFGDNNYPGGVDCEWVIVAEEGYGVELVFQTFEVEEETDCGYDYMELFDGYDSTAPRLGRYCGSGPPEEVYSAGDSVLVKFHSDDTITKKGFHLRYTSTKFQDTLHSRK
Text: A variety of short peptides comprising five (5) to twelve (12) amino acids was synthesized and tested for cleavage by active C-proteinase.
First, four peptides, each comprising eight (8) amino acids corresponding to the cleavage region of several procollagens were synthesized. See, TABLE 1, SEQ ID NO:3, SEQ ID NO:4, SEQ ID NO:5, and SEQ ID NO:6. All four peptides were examined for cleavability by C-proteinase. […] Indeed, one would expect that recognition of the cleavage site depends on structural requirements which cannot be resembled by only eight (8) amino acids.
Second, a series of peptides was prepared based on the sequence of original peptide SEQ ID NO:6. Specifically, peptides were designed resembling the core of the peptide comprising SEQ ID NO:6, but with truncations of one, two and three amino acids from either side of the cleavage site. A further peptide was synthesized resembling two additional amino acids at both the N-terminus and C-terminus of the original peptide comprising SEQ ID NO:6.
Removing two or more amino acids from either end of the original SEQ ID NO:6 sequence, however, yielded a non-cleavable peptide (SEQ ID NOS:9, 10, 12, 13).

O[C@H](CS)[C@H](O)CS (racemic) [Dithiothreitol]
inhibitory at low concentrations (C-proteinase [1]): inhibitory at low concentrations

[Cd+2] [Cd^2+]
inhibitory at low concentrations (C-proteinase [1]): inhibitory at low concentrations

[Cu+2] [Cu^2+]
inhibitory at low concentrations (C-proteinase [1]): inhibitory at low concentrations

[Cl-].[Na+] [NaCl]
activity relative to that observed with the standard assay concentration of 0.15M (C-proteinase [1]; 0.2M NaCl): 66%
activity relative to that observed with the standard assay concentration of 0.15M (C-proteinase [1]; 0.3M NaCl): 38%
activity relative to that observed with the standard assay concentration of 0.15M (C-proteinase [1]; 0.5M NaCl): 25%

CCCCCCCCCCCCOS(=O)(=O)[O-].[Na+] [SDS]
inhibitory at low concentrations (C-proteinase [1]): inhibitory at low concentrations

CC(=O)N[C@@H](Cc1ccc(O)cc1)C(=O)N[C@@H](Cc1ccc(O)cc1)C(=O)N[C@@H](CCCNC(=N)N)C(=O)N[C@@H](C)C(=O)N[C@@H](CC(=O)O)C(=O)N[C@@H](CC(=O)O)C(=O)N[C@@H](C)C(=O)N[C@@H](CC(N)=O)C(N)=O [SEQ ID NO:3, Ac-YYRA-DDAN-NH2] (Ac-YYRADDAN-NH2)
Cleavability (C-proteinase [2]): slight
cleavability by C-proteinase (C-proteinase [2]): cleaved by C-proteinase

CC(=O)N[C@@H](Cc1ccccc1)C(=O)N[C@@H](Cc1ccc(O)cc1)C(=O)N[C@@H](CCCNC(=N)N)C(=O)N[C@@H](C)C(=O)N[C@@H](CC(=O)O)C(=O)N[C@@H](CCC(N)=O)C(=O)N1CCC[C@H]1C(=O)N[C@@H](CCCNC(=N)N)C(N)=O [SEQ ID NO:4, Ac-FYRA-DQPR-NH2] (Ac-FYRADQPR-NH2)
Cleavability (C-proteinase [2]): slight
cleavability by C-proteinase (C-proteinase [2]): cleaved by C-proteinase

CSCC[C@H](NC(=O)[C@H](Cc1ccc(O)cc1)NC(C)=O)C(=O)N[C@@H](CCCNC(=N)N)C(=O)N[C@@H](C)C(=O)N[C@@H](CC(=O)O)C(=O)N[C@@H](CCC(N)=O)C(=O)N[C@@H](C)C(=O)N[C@@H](C)C(N)=O [SEQ ID NO:5, Ac-YMRA-DQAA-NH2] (Ac-YMRADQAA-NH2)
Cleavability (C-proteinase [2]): slight
cleavability by C-proteinase (C-proteinase [2]): cleaved by C-proteinase

CSCC[C@H](NC(=O)[C@@H]1CCCN1C(=O)[C@H](CCC(=O)O)NC(=O)[C@H](CC(=O)O)NC(=O)CNC(=O)[C@H](Cc1ccc(O)cc1)NC(=O)[C@H](Cc1ccc(O)cc1)NC(=O)[C@@H]1CCCN1C(C)=O)C(N)=O [SEQ ID NO:6, Ac-PYYG-DEPM-NH2] (Ac-PYYGDEPM-NH2)
Cleavability (C-proteinase [2]): excellent
cleavability by C-proteinase (C-proteinase [2]): cleaved much more efficiently than the three others

CSCC[C@H](NC(=O)[C@@H]1CCCN1C(=O)[C@H](CCC(=O)O)NC(=O)[C@H](CC(=O)O)NC(=O)CNC(=O)[C@H](Cc1ccc(O)cc1)NC(=O)[C@H](Cc1ccc(O)cc1)NC(=O)[C@@H]1CCCN1C(=O)[C@H](C)NC(=O)[C@H](Cc1ccccc1)NC(C)=O)C(=O)N[C@@H](CC(=O)O)C(=O)N[C@@H](Cc1ccccc1)C(N)=O [SEQ ID NO:7, Ac-FAPYYG-DEPMDF-NH2] (Ac-FAPYYGDEPMDF-NH2)
Cleavability (C-proteinase [2]): excellent
cleavability by C-proteinase (C-proteinase [2]): did not impact its cleavability

[Zn+2] [Zn^2+]
inhibitory at low concentrations (C-proteinase [1]): inhibitory at low concentrations

CC(C)C[C@@H](N)[C@H](O)C(=O)N[C@H](C(=O)N[C@H](C(=O)N[C@@H](CC(=O)O)C(=O)O)C(C)C)C(C)C [amastatin]
inhibition of C-proteinase activity (in words) (C-proteinase [1]): weak or no effect

N.N.O=S(=O)(O)O [ammonium sulfate]
concentrations at which inhibitory (C-proteinase [1]): 1 to 10 mM

CC(C)[C@H](NC(=O)[C@H](CCCNC(=N)N)NC(=O)N[C@@H](Cc1ccccc1)C(=O)O)C(=O)N[C@H](C=O)CCCNC(=N)N [antipain] ({Phe-CO}-Arg-Val-Arg-aldehyde)
inhibition of C-proteinase activity (in words) (C-proteinase [1]): weak or no effect

N=C(N)NCCC[C@H](N)C(=O)O [arginine]
inhibition of C-proteinase activity (in words) (C-proteinase [1]): inhibited

CC(C)C[C@H](NC(=O)[C@@H](O)[C@H](N)Cc1ccccc1)C(=O)O [bestatin]
inhibition of C-proteinase activity (in words) (C-proteinase [1]): weak or no effect

CC(C)C[C@H](NC(=O)[C@@H](NC(=O)N[C@@H](Cc1ccccc1)C(=O)O)[C@@H]1CCN=C(N)N1)C(=O)N[C@H](C=O)Cc1ccccc1 [chymostatin]
inhibition of C-proteinase activity (in words) (C-proteinase [1]): relatively strong inhibitors

CC(C)C[C@H](NC(=O)N[C@H](C(=O)N[C@@H](CCC(N)=O)C(=O)N[C@@H](C)C=O)[C@@H]1CCNC(=N)N1)C(=O)O [elastinal]
inhibition of C-proteinase activity (in words) (C-proteinase [1]): weak or no effect

CC(=O)N[C@@H](CC(C)C)C(=O)N[C@@H](CC(C)C)C(=O)N[C@H](C=O)CCCNC(=N)N [leupeptin]
inhibition of C-proteinase activity (in words) (C-proteinase [1]): weak or no effect

NCCCC[C@H](N)C(=O)O [lysine]
inhibition of C-proteinase activity (in words) (C-proteinase [1]): inhibited

CC(C)CC(=O)N[C@H](C(=O)N[C@H](C(=O)N[C@@H](CC(C)C)[C@@H](O)CC(=O)N[C@@H](C)C(=O)N[C@@H](CC(C)C)[C@@H](O)CC(=O)O)C(C)C)C(C)C [pepstatin A] (Isovaleryl-VV[Sta]A[Sta]-OH)
inhibition of C-proteinase activity (in words) (C-proteinase [1]): relatively strong inhibitors

CC(C)C[C@H](NP(=O)(O)O[C@@H]1O[C@@H](C)[C@H](O)[C@@H](O)[C@H]1O)C(=O)N[C@@H](Cc1c[nH]c2ccccc12)C(=O)O [phosphoramidon]
inhibition of C-proteinase activity (in words) (C-proteinase [1]): weak or no effect

Tris-HCl [Tris-HCl buffer]
inhibition of C-proteinase activity by buffer (C-proteinase [1]; concentration of 0.2-0.5M): markedly inhibited activity

concanavalin A
inhibitory at low concentrations (C-proteinase [1]): inhibitory at low concentrations

phosphate
concentrations at which inhibitory (C-proteinase [1]): 1 to 10 mM

α2 -Macroglobulin
inhibition of C-proteinase activity (in words) (C-proteinase [1]): at least partially inhibit

B1: ovostatin (protein, UniProt P20740 37-1473, looked up)
Ovostatin: KEPEPQYVLMVPAVLQSDSPSQVCLQFFNLNQTISVRVVLEYDTINTTIFEKNTTTSNGLQCLNFMIPPVTSVSLAFISFTAKGTTFDLKERRSVMIWNMESFVFVQTDKPIYKPGQSVMFRVVALDFNFKPVQEMYPLIAVQDPQNNRIFQWQNVTSEINIVQIEFPLTEEPILGNYKIIVTKKSGERTSHSFLVEEYVLPKFDVTVTAPGSLTVMDSELTVKICAVYTYGQPVEGKVQLSVCRDFDSYGRCKKSPVCQSFTKDLDTDGCLSHILSSKVFELNRIGYKRNLDVKAIVTEKEQVCNLTATQSISITQVMSSLQFENVDHHYRRGIPYFGQIKLVDKDNSPISNKVIQLFVNNKNTHNFTTDINGIAPFSIDTSKIFDPELSLKALYKTSDQCHSEGWIEPSYPDASLSVQRLYSWTSSFVRIEPLWKDMSCGQKRMITVYYILNTEGYEHINIVNFYYVGMAKGKIVLTGEIKVNIQADQNGTFMIPLVVNEKMAPALRLLVYMLHPAKELVADSVRFSIEKCFKNKVQLQFSEKQMLTTSNVSLVIEAAANSFCAVRAVDKSMLLLKSETELSAETIYNLHPIQDLQGYIFNGLNLEDDPQDPCVSSDDIFHKGLYYRPLTSGLGPDVYQFLRDMGMKFFTNSKIRQPTVCTRETVRPPSYFLNAGFTASTHHVKLSAEVAREERGKRHILETIREFFPETWIWDIILINSTGKASVSYTIPDTITEWKASAFCVEELAGFGMSVPATLTAFQPFFVDLTLPYSIIHGEDFLVRANVFNYLNHCIKINVLLLESLDYQAKLISPEDDGCVCAKIRKSYVWNIFPKGTGDVLFSITAETNDDEACEEEALRNIRIDYRDTQIRALLVEPEGIRREETQNFLICMKDDVISQDVAIDLPTNVVEGSPRPSFSVVGDIMGTAIQNVHQLLQMPFGNGEQNMVLFAPNIYVLDYLDKTRQLSEDVKSKTIGYLVSGYQKQLSYKHPDGSYSTFGIRDKEGNTWLTAFVYKSFAEASRFIYIDDNVQAQTLIWLATKQKTDGCFQSTGILVNNAMKGGVENELSLSAYITIALLEAGHSMSHTVIRNAFYCLETASEKNITDIYTQALVAYAFCLAGKAEICESFLRELQKSAKEVDGSKYWEQNQRSAPEKSHLLDHVQSTDVEITSYVLLALLYKPNRSQEDLTKASAIVQWIIRQQNSYGGFASMQDTVVALQALAAYGAATYNSVTQNVIKINSKNTFEKVFTVNNENRLLLQQTPLPQVPGKYSLTVNGTGCVLIQTALRYNIHLPEGAFGFSLSVQTSNASCPRDQPGKFDIVLISSYTGKRSSSNMVIIDVKMLSGFVPVKSSLDQLIDDHTVMQVEYKKNHVLLYLGNILQKRRKEVTFSVEQDFVVTHPKPAPVQIYDYYETEEYAVAEYMSLCRGVVEEMG
inhibition of C-proteinase activity (in words) (C-proteinase [1]): at least partially inhibit
